In assay [1] the test system is MDA cells. Description: Autophagy in MDA cells (LC3 immuno-staining). The note with it: 2 μM. It is filed as cell-based, human. The protocol:
Cells were fixed with 4% paraformaldehyde (30 min) and incubated with Permeabilization Solution containing 0.1% Triton X-100 (Sigma-Aldrich, Israel) in PBS at room temperature for 1 h. Nonspecific binding was blocked with PBS containing 10% fetal bovine serum for 1 h at room temperature. Cells were incubated with specific antibodies diluted 1:100 overnight at 4° C. Cells were washed (5 min) in PBS containing 0.2% Tween-20 (Sigma-Aldrich, Israel) to remove non-specific binding. Bound primary antibodies were detected by Alexa Fluor® 488 goat anti-mouse IgG antibody or Alexa Fluor® 594 goat anti-rabbit IgG antibody (Molecular Probes, Invitrogen, U.K.). Nuclei were visualized by incubation with Hoechst 33342 solution for 10 min (1:500). Nonspecific staining, as determined by binding to the secondary antibody only, was negligible. The immunostained slides were examined under the fluorescence microscope AxioimagerZ1 (Zeiss, Germany) or confocal fluorescence microscope (Olympus-FV1000).

The subject of assay [2] is SW620 CC xenografts. The experiment in a line: SW620 CC xenografts in nude mice. It is filed as in vivo. On the procedure:
All animal experiments were performed according to the guidelines of the Institutional Animal Care and Use Committee of the Bar-Ilan University. Nude mice (Harlan, Israel) were transferred from ad libitum diet to a more strict diet 2 days before inoculation to lower blood glucose levels, and housed one per cage to ensure an even consumption of food. The diet was comprised of 3 g/mouse/day of standard chow, given at the same time every day. The food was consumed within an average time of 2 hours, consequently the mice were kept without food for the next 22 hours until the daily ration. The mice were kept on this diet throughout the experiment. Mice were inoculated with 1.5×10^6 SW620 CC cells and divided randomly into respective experimental groups. In brief, cells were harvested, counted under the microscope, concentrated by centrifugation (5 min at 500G) and re-suspended in Hank's balanced salt solution (Biological Industries, Israel). Before inoculation the cell suspension was mixed with Martial (BD biosciences, USA) in 1:1 ratio. Four days post-inoculation mice were randomized and placed in cages (n=4 per cage). […]
Mice were sacrificed at day 22 of the xenograft experiments, as described above. […] The serum was analyzed immediately using the Cobas 6000-501 chemistry analyzer (Roche Diagnostics, USA) according to the manufacturer's protocols for each assay.

Assay [3] deals with Electron Transport Chain (ETC) complex I. Description: ETC Complex I activity assay in SW620 cells. The class given is cell-based, human. On the procedure:
SW620 cells were treated with 0260 for 4-22 h and the Complex I activity was determined for each period on incubation using the Complex I Enzyme Activity Microplate Assay Kit (Colorimetric) according to the manufacturer's instructions (ab109721).

For assay [4], the system named is pancreatic cancer cells (PANC-1). The experiment in a line: MultiTox-Fluor cytotoxicity assay in PANC-1 cells. To be noted: PANC-1, 24-72 h. It is filed as cell-based, human. The protocol: Cell lines (HCT116, ht29, Rko, Hep3B, SW48, SW620, MDA-MB-231, PANC-1, su.86.86, Hfb) were obtained from the American Type Culture Collection (ATCC). Cell type authentication was carried out by microscope and DNA profiles using short tandem repeat analysis. Cells were grown in Minimum Essential Medium (MEM) containing 10% heat-inactivated Fetal Bovine Serum (FBS) or in Dulbecco's Modified Eagle's Medium (DMEM) containing 10% FBS, where specified, at 37° C. with 5% CO2. In general, the in-vitro experiments were carried out with 2. μM 0260 added into the growth medium. Dose response experiments included increasing 0260 concentrations. Cell death levels were determined using the MultiTox-Fluor Multiplex Cytotoxicity Assay (G9201, Promega, USA). In brief, 10,000 cells were seeded in black bottom 96 wells plate and were allowed to attach to the plate bottom for 16 h before the administration of various 0260 concentration in each well. Cell death levels were determined according to the manufacturer's protocol.
Cells death level was determined using the MultiTox-Fluor Multiplex Cytotoxicity Assay (G9201, Promega, USA) according to the manufacturer's protocol.

For assay [5], the target named is Fer (Homo sapiens, UniProt P16591). The experiment in a line: Fer autophosphorylation in RKO CC cells (IP/WB). Set-up: endogenous in cells. It is filed as cell-based. The note with it: 24 h. On the procedure:
WB analyses were carried out as previously described before. In brief, cells were lysed in RIPA buffer mixed with protease inhibitors and separated on SDS-PAGE gel, transferred to PVDF membrane treated with 5% skim milk to exclude non-specific background and incubated with a primary antibody over-night. The membrane was incubated for 1 h with a secondary antibody conjugated to Horseradish Peroxidase (HRP). The protein-antibody complex was visualized using the SuperSignal West Pico Chemiluminescent Substrate (Thermo scientific, USA).
Protein lysates (1 mg) were prepared from tissues of adult mice according to previously described protocol, including incubation with Protein A Sepharose (GE Healthcare) to avoid nonspecific binding. Protein lysates were incubated with specific antibodies diluted 1:100 overnight at 4° C. Antigen-antibody complexes were precipitated with Protein A Sepharose, washed twice in PBS and eluted in Sample Buffer (2% SDS, 1% DTT 0.02% bromophenol blue 10% glycerol, 12.5 mM EDTA, 50 mM Tris-HCl pH 6.8) at room temperature for 10 min and at 100° C. for 8 min. Eluates were separated on SDS-PAGE and visualized by WB using specific antibodies.

Assay [6] concerns Hfb cells. The experiment in a line: Glycolysis rate (secreted lactate) in Hfb cells. It is filed as cell-based, human. The note with it: low or high glucose. The protocol:
Cells were grown in MEM containing 1 gr/lit glucose or in DMEM with 4.5 gr/lit glucose. Secreted lactate levels were determined using Lactate Colorimetric Assay Kit II according to the manufacturer's protocol (Biovision, USA).

Assay [7] has as its system CC cells. Description: Mitochondrial membrane potential (TMRE) in CC cells. The class given is cell-based, human. The note with it: malignant cells. The protocol:
For microscopic and ELISA based analyses of cells MMP, Tetra-Methyl-Rhodamine-Ethyl ester (TMRE) incorporation assay was carried out according to the manufacturer's instructions (Abcam, USA).

SMILES strings stand for the structures. Where a name gives a salt, the structure may show the parent alone.

Sequence of Fer (P16591 whole entry): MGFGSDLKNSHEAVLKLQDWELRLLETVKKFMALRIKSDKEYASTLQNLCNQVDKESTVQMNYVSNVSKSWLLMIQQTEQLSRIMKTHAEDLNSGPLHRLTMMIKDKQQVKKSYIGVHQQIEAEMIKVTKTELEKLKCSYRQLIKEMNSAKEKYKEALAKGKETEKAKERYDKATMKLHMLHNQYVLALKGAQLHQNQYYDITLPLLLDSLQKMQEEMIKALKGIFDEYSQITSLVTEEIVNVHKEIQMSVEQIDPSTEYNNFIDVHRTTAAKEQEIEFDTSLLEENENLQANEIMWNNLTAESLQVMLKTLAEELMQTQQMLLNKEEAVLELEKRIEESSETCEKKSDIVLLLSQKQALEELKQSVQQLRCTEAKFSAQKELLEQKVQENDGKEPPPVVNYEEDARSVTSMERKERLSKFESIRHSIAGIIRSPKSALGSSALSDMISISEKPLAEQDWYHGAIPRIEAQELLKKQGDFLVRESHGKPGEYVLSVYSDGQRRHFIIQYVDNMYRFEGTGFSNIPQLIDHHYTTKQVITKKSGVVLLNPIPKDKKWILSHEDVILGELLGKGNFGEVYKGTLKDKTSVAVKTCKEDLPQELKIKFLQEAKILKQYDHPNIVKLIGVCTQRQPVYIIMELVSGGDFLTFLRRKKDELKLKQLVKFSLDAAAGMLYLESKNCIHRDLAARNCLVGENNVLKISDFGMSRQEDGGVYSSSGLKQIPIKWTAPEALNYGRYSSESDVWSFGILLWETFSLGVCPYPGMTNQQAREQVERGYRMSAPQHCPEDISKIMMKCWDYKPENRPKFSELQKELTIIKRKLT

Regarding `CC(C)c1ccc(-c2cn3nc(N4CCC(CN5CCN(C)CC5)CC4)sc3n2)cc1` [compound 0260, tartarate salt of 6-(4-isopropyl-phenyl)-2-{4-[(4-methyl-piperazin-1-yl)methyl]piperidin-1-yl}-imidazo [2,1-b][1,3,4]thiadiazole], in assay [1], the “autophagy (LC3 immuno-staining)” value is reported as “induction of autophagy was also observed”. For the same compound, the tumor histopathology result in assay [2] (SW620 derived tumors dissected at day 22, center and periphery) is “comprised mostly of dead necrotic and un-vascularized tissue”. Further, the “decrease in average tumor volume” value in assay [2] (after 22 days of treatment, IP twice a day, restricted diet) was 10 fold. Also, the “Complex I activity” value in assay [3] (SW620, 4 h post treatment) was “inhibited”. For the same compound, the “Complex I activity (remaining)” value in assay [3] (SW620, 16 h) is listed as “around 55%”; in assay [3] (SW620, 22 hours), ~35%. Moreover, in assay [4], the “concentration efficient in inducing cell death” value was ≤ 1.5 µM. For the same compound, the “Fer autophosphorylation level in cells” value in assay [5] is given as “inhibitory effect”. In addition, in assay [6], the “elevation in the glycolytic rate” value is “not observed”. The “Mitochondrial Membrane Potential (MMP)” value in assay [7] is given as “depolarization”.
